Entries after “also recorded” stand apart in the source; their conditions may differ.
Tests used:
[1] = system: tomato plant (c.v. Money maker); assay: Foliar application on tomato plants; format: in vivo; conditions: 5 μM foliar application
Experimental: Tomato seeds (c.v. Money maker) were sterilized and pre-germinated on moistened filter paper at 22° C. for 4-5 days, transferred to light for 3-4 days or direct sowed of seeds from fresh tomatoes in soils at 25° C. Most uniform seedlings (10 days old) were selected and transferred to pots. After one week of the transfer, 5 μM compounds were used for foliar application. Each compound was applied three times in a week up to four weeks: 20 mL per pot (spray as runoff) in first 3 weeks, and 40 mL per pot in last 4th week. The plants were grown under normal growth condition (27° C., 70% RH).

[2] = Chemical stability in aqueous solution by HPLC; format: physicochemical; conditions: 14-day HPLC analysis, room temperature (21±1° C.), pH 5.0-6.0 aqueous solution; compared with MZ5
Experimental: MZ3, and MZ5 were tested for their chemical stability at 21±1° C. with pH 5.0-6.0 aqueous solution following the protocol described recently. 50 μl of each compound solutions (1 mg ml-1) was prepared with 175 μl ethanol and 750 μl Mili-Q water. Thereafter, 25 μl Indanol (1 mg ml-1, internal standard) was spiked in 975 μl previous prepared solution. The degradation was monitored at a time course by UPLC analysis using an Agilent HPLC ZORBAX Eclipse XDB-C18 column (3.5 μm, 4.6×150 mm), eluted first by 5% acetonitrile in water for 0.5 min then by a gradient flow from 5% to 100% acetonitrile within 18 min, and by 100% acetonitrile for 5 min. The column was operated at 40° C. at 0.35 ml min^−1 flow rate. Compounds eluted from the column were detected with a photodiode array detector, and the relative quantity of non-degraded amount was calculated by integration comparison with Indanol.
Zaxinone was tested under the same conditions for comparison. Synthetic zaxinone was purchased (customized synthesis) from Buchem B.V. (Apeldoorn, The Netherlands).

[3] = system: SL biosynthesis genes D27, CCD7, CCD8, CO; assay: qRT-PCR transcript analysis of SL biosynthesis genes in rice roots; format: in vivo; conditions: 5 μM
Experimental: For transcript analysis, one-week-old seedlings were grown hydroponically in half-strength modified Hoagland nutrient solution with K2HPO4.2H2O (+Pi) and without K2HPO4.2H2O (+Pi) (−Pi) for 7 days. Seedlings were further treated with zaxinone or MZ compounds for 6 h, and tissues were collected.
Roots of rice seedling were ground and homogenized in liquid nitrogen, and total RNA was isolated using a Direct-zol RNA Miniprep Plus Kit following the manufacturer's instructions (ZYMO RESEARCH; USA). cDNA was synthesized from 1 μg of total RNA using iScript cDNA Synthesis Kit (BIO-RAD Laboratories, Inc, 2000 Alfred Nobel Drive, Hercules, Calif.; USA) according to the instructions in the user manual. The gene expression level was detected by real-time quantitative RT-PCR (qRT-PCR) which was performed using SYBR Green Master Mix (Applied Biosystems; www.lifetechnologies.com) in a CFX384 Touch™ Real-Time PCR Detection System (BIO-RAD Laboratories, Inc, 2000 Alfred Nobel Drive, Hercules, Calif.; USA). The gene expression level was calculated by normalization of a housekeeping gene in rice, Ubiquitin (OsUBQ) (Table 1). The relative gene expression level was calculated according to 2-^ΔΔCT method.

[4] = LC-MS analysis of rice plants fed with the mimics; format: in vivo; conditions: data not shown
[5] = system: strigolactones (4-deoxyorobanchol, orobanchol) content; assay: LC-MS/MS quantification of SLs in rice root tissues; format: in vivo; conditions: Pi-starved WT rice, 5 μM, 6 hours
Experimental: For SL analysis, one-week-old seedlings were transferred into 50 ml falcon tubes (two seedlings per tube), containing half-strength Hoagland nutrient solution with K2HPO4.2H2O (+Pi), and grown in the biochamber for one week. Rice seedlings were then subjected to phosphate deficiency (−Pi) for another one week. On the day of root exudates collection, rice seedlings were first treated with 5 μM Zaxinone, or MZ compounds for 6 h, and then root exudates and root tissues were collected from each tube for LC-MS/MS analysis and Striga bioassays.
For the quantification of SLs in rice root, plant tissue material was lyophilized and grinded. Approximately 20 mg root tissue spiked with 0.672 ng of D6-5-deoxystrigol was extracted with 2 ml of ethyl acetate in an ultrasound bath (Branson 3510 ultrasonic bath) for 15 min, followed by centrifugation for 8 min at 3800 rpm at 4° C. The supernatant was collected and the pellet was re-extracted with 2 ml of ethyl acetate. Then the two supernatants were combined and dried under vacuum. The residue was dissolved in 100 μl of ethyl acetate and 2 ml of hexane. The resulting extract solution was loaded on a Silica gel SPE column (500 mg/3 ml) preconditioned with 3 ml of ethyl acetate and 3 ml of hexane. […] 4-deoxyorobanchol was analyzed by using HPLC-Q-Trap-MS/MS with MRM mode. […]

wild-type rice plants = assay: Rice phenotypes in soil (rhizotron system); format: in vivo; conditions: 5 μM
Experimental: For testing MZ3 and MZ5 on rice phenotypes in the rhizotron system (48 cm×24 cm×5 cm), three-day-old seedlings were grown in soil with half-strength modified Hoagland nutrient solution containing 0.4 mM K2HPO4.2H2O (+Pi) and 5 μM zaxinone for two weeks. The solution was changed every other day, adding the chemical at each renewal. To increase the compounds stability, 1 μl/ml emulsifier (cyclohexanone+Atlas […] kindly provided by a person […] of CRODA, Gouda; The Netherlands) was added into Hoagland nutrient solution. Root surface area was analyzed with the ImageJ software.

What does the source list for `COc1ccc(Oc2cccc(/C=C/C(C)=O)c2)cc1` [MZ3, (E)-4-(3-(4-methoxyphenoxy)phenyl)but-3-en-2-one]?
plant height, branch, flowers and fruit numbers compared to zaxinone [1]: strongly increased; stability (relative amount of non-degraded compound) [2]: much more stable; CCD7 and CO transcript level compared with Zaxinone ([3]; wild-type rice roots, Pi starvation, 6 h (FIGS. 12A-12D)): significantly lower; transcript levels of SL biosynthesis enzymes D27, CCD7, CCD8 and CO ([3]; wild-type rice seedlings, Pi-starvation, 6 h): strongest inhibition; also recorded: pronounced decrease; presence in shoots of rice plants fed through roots [4]: detected; Oro content in roots ([5]; control 0.6): 0.1 pgmg-1dry-root-weight; 4DO content in roots ([5]; control 2.5): 0.5 pgmg-1dry-root-weight; root surface area and root numbers of WT plants compared with zaxinone treatment (wild-type rice plants): increased more

From patent publication US20220400669A1, “COMPOUNDS AND METHODS FOR PROMOTING PLANT GROWTH” (King Abdullah University of Science and Technology, priority 2019, published 2022)
